Values quoted from earlier work, collected in US20240415845A1, “Compositions of Iboga Alkaloids and Methods of Treatment” (priority 2022, published 2024).

Conditions: in vivo; cited from earlier work

CC[C@H]1CC2C[C@H]3c4[nH]c5ccc(O)cc5c4CCN(C2)C13 [noribogaine, Noribogaine]
half-life: 28 to 49 h
